Experimental data reported in paper PMC11350868, “A Novel Bacitracin-like Peptide from Mangrove-Isolated Bacillus paralicheniformis NNS4-3 against MRSA and Its Genomic Insights” (Antibiotics, 2024).
Values after ≈ are worked out from the molar mass of the structure shown. Like-named read-outs stand apart in the source and are kept apart here.

Assays:
[1] = test system: MRSA strain 1096; experiment: microbe, parasite or virus in culture; assay type: cell-based, Staphylococcus aureus; details: strain 1096, 24 h
Description: (§1) The MIC and MBC of the purified peptide of NNS4-3 were determined against various strains of S. aureus. The broth microdilution method followed the guidance provided by the Clinical and Laboratory Standards Institute (CLSI). Pathogenic bacteria, such as S. aureus TISTR 517 and MRSA strains 142, 1096, and 2468, were used as test strains and cultured on MH agar at 37 °C for 18 h. A single colony of each tested bacterium was suspended in 0.85% NaCl until its turbidity reached an OD of 0.1 at 625 nm (1 × 10^8 CFU/mL). The bacterial cells were diluted to 5 × 10^6 CFU/mL using cation-adjusted Mueller Hinton broth (CAMHB). The diluted cell suspension (10 µL) was transferred to each well of a 96-well plate. With a total volume of 100 µL in each well, the purified AMP was added to each well to obtain final concentrations between 0.125 and 64 µg/mL. Standard antibiotics (vancomycin and cefoxitin) and antibiotic-free samples were used as positive and negative controls, respectively. The 96-well plate was incubated at 37 °C for 24 h. The experiment was carried out in triplicate for each strain. […] Subsequently, 100 µL of each dilution was spread on MH agar and then incubated at 37 °C for 24 h. The MBC was identified as the lowest concentration at which no bacterial colony growth was observed on the plate.

[2] = test system: MRSA strain 142; experiment: microbe, parasite or virus in culture; assay type: cell-based, Staphylococcus aureus; details: strain 142, 24 h
Description: as §1

[3] = test system: MRSA strain 2468; experiment: microbe, parasite or virus in culture; assay type: cell-based, Staphylococcus aureus; details: strain 2468, 24 h
Description: as §1

[4] = test system: S. aureus TISTR 517; experiment: microbe, parasite or virus in culture; assay type: cell-based, Staphylococcus aureus; details: TISTR 517, 24 h
Description: as §1

[5] = test system: MRSA strain 2468; experiment: Time-kill kinetics; assay type: cell-based, Staphylococcus aureus; details: 4× MIC; CAMHB, 37 °C
Description: S. aureus TISTR 517 and MRSA strain 2468 were adjusted to a cell density of 5 × 10^5 CFU/mL with CAMHB for the initial treatment. […] The reactions were conducted at 37 °C, followed by spreading the total volume onto MH agar at specific time intervals (0–24 h). Subsequently, the spread plates were incubated at 37 °C for 24 h before counting the colonies. The bacterial reduction trends were presented with a log10 scale of viable cells (logCFU/mL) versus treatment duration. The bacterial cell reduction was determined within 24 h. Each experiment was conducted in triplicate on the 96-well plates. The presence of significant differences (p-value < 0.05) was assessed by two-way ANOVA, followed by the post hoc Tukey’s test for conducting multiple comparisons between treated and non-treated samples at each time interval.

[6] = test system: MRSA strain 2468; experiment: SEM of treated cells (morphological changes); assay type: cell-based, Staphylococcus aureus; details: 1× MIC, 18 h incubation, 20,000× magnification
Description: (§2) The treatment effect of NNS4-3 AMP on tested bacterial cells was investigated by observing morphological changes under SEM. S. aureus TISTR 517 and MRSA strain 2468 were precultured in MH broth for 18 h before being centrifuged to harvest the cell pellet. Cell pellets of both strains were washed with 0.85% sterile NaCl solution 3 times to remove exopolysaccharide. The washed cells were then dispersed in CAMHB to adjust cell turbidity to 0.1 OD at 625 nm. The prepared cells were diluted to 5 × 10^5 CFU/mL with CAMHB before being treated with NNS4-3 AMP. […] The sample for SEM micrography was prepared by fixing the bacterial sample in 2.5% glutaraldehyde in 0.1 M phosphate buffer pH 7.2 for 24 h before ethanol dehydration of the sample. The complete ethanol removal from the prepared sample was conducted by a critical point drying machine (Quorum Technologies Ltd., Lewes, East Sussex, UK).

[7] = test system: S. aureus TISTR 517; experiment: SEM of treated cells (morphological changes); assay type: cell-based, Staphylococcus aureus; details: 1× MIC, 18 h incubation, 20,000× magnification
Description: as §2

[8] = target: T1, Proteinase K (Parengyodontium album, UniProt P06873); experiment: Proteolytic enzyme stability (residual antibacterial activity); assay type: in vitro ADME; details: Proteinase K 1 mg/mL, AMP 10 µg/mL, agar well diffusion vs MRSA strain 2468, relative to non-treated sample, mean ± SD, triplicate
T1 construct: purchased Sigma-Aldrich
T1 sequence (P06873 106-384): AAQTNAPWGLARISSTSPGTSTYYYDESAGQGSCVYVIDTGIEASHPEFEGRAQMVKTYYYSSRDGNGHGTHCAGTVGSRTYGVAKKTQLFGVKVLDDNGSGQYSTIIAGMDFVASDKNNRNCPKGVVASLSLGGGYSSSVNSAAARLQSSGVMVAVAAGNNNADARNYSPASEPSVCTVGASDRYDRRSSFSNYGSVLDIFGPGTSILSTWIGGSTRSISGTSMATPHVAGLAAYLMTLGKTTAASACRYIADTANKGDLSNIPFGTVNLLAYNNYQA
Description: (§3) The AMP was dissolved in sterile purified water and adjusted to a final concentration of 10 µg/mL. The sensitivity of the AMP to temperatures of 60, 80, and 100 °C as well as autoclaving at 121 °C for 15 and 30 min was evaluated. The sensitivity of the AMP to proteolytic enzymes with different digesting characteristics was studied by incubating with a concentration of 1 mg/mL of proteinase K, trypsin, and α-chymotrypsin (Sigma-Aldrich, Warren, MI, USA). Surfactant compatibility of the AMP was examined by exposing the sample to 1% SDS and 1% Triton X-100 (AppliChem GmbH, Darmstadt, Germany). The propensity of the AMP for acid and base hydrolysis was examined by adjusting the pH of the solution to 1.2, 4.5, 6.8, and 7.4. After incubation, the pH of the AMP solution was neutralized to 7.4 before being assessed for antimicrobial activity. Following all treatments, the antibacterial assay using agar well diffusion against the MRSA strain 2468 was conducted in triplicate. The stability profiles are presented as the percentage of the activity relative to the untreated conditions (mean ± SD) and statistical significance was determined by the Student’s t-test at a p-value < 0.05.

[9] = Surfactant stability (residual antibacterial activity); assay type: physicochemical; details: AMP 10 µg/mL, agar well diffusion vs MRSA strain 2468, relative to non-treated sample, mean ± SD, triplicate
Description: as §3

[10] = Effect of pH on the stability (residual antibacterial activity); assay type: physicochemical; details: AMP 10 µg/mL, mean ± SD, triplicate
Description: as §3

[11] = test system: Trypsin; details: Trypsin 1 mg/mL, AMP 10 µg/mL, agar well diffusion vs MRSA strain 2468, relative to non-treated sample, mean ± SD, triplicate
Description: as §3

[12] = target: α-chymotrypsin (Bos taurus, UniProt P00766); details: α-chymotrypsin 1 mg/mL, AMP 10 µg/mL, agar well diffusion vs MRSA strain 2468, relative to non-treated sample, mean ± SD, triplicate
Description: as §3

`CC(C)CC(NC(=O)C(N)CCCCN)C(=O)NC(CC(C)C)C(=O)NC(CCCCN)C(=O)NC(CC(=O)O)C(=O)NC(CC(C)C)C(=O)NC(Cc1ccccc1)C(=O)NC(Cc1c[nH]cn1)C(=O)NC(CC(=O)O)C(=O)NC(CC(N)=O)C(=O)O` (single isomer, unassigned) [NNS4-3 AMP] gave an MBC [1] of 4 µg/mL (≈ 3.22 µM), an MIC [1] of 1 µg/mL (≈ 0.805 µM) and an MBC [2] of 4 µg/mL (≈ 3.22 µM). It also gave an MIC [2] of 1 µg/mL (≈ 0.805 µM), an MBC [3] of 4 µg/mL (≈ 3.22 µM) and an MIC [3] of 1 µg/mL (≈ 0.805 µM). For the same compound, the MBC [4] was 64 µg/mL (≈ 51.5 µM), the MIC [4] was 16 µg/mL (≈ 12.9 µM) and the “time of treatment to complete elimination of viable cells” value [5] was ≤ 8 h. The “morphological changes under SEM” value [6] was “membrane disruption and pore formation”, the “morphological changes under SEM” value [7] was “cellular lysis” and the “% Residual Activity” value ([8]; 1 h) was 98.66 ± 1.68%. For the same compound, the “% Residual Activity” value ([8]; 6 h) was 99.19 ± 1.07%, the “% Residual Activity” value ([8]; 12 h) was 99.07 ± 3.08% and the “% Residual Activity” value ([9]; 1% SDS, 1 h) was 87.00 ± 6.17 %. For the same compound, the “% Residual Activity” value ([9]; 1% SDS, 6 h) was 86.69 ± 5.39 %, the “% Residual Activity” value ([9]; 1% SDS, 12 h) was 86.25 ± 4.76 % and the “% Residual Activity” value ([9]; 1% Triton X-100, 1 h) was 104.54 ± 4.96%. The “% Residual Activity” value ([9]; 1% Triton X-100, 12 h) was 103.40 ± 3.82%, the “% Residual Activity” value ([10]; pH 1.2, 1 h, neutralized to pH 7.4 before agar well diffusion vs MRSA strain 2468, relative to non-treated sample) was 98.12 ± 2.14% and the “% Residual Activity” value ([10]; pH 1.2, 6 h, neutralized to pH 7.4 before agar well diffusion vs MRSA strain 2468, relative to non-treated sample) was 95.45 ± 0.79%. For the same compound, the “% Residual Activity” value ([10]; pH 1.2, 12 h, neutralized to pH 7.4 before agar well diffusion vs MRSA strain 2468, relative to non-treated sample) was 94.14 ± 3.12%, the “% Residual Activity” value ([10]; pH 4.5, 1 h, neutralized to pH 7.4 before agar well diffusion vs MRSA strain 2468, relative to non-treated sample) was 95.24 ± 3.29% and the “% Residual Activity” value ([10]; pH 4.5, 6 h, neutralized to pH 7.4 before agar well diffusion vs MRSA strain 2468, relative to non-treated sample) was 99.64 ± 2.87%. The “% Residual Activity” value ([10]; pH 4.5, 12 h, neutralized to pH 7.4 before agar well diffusion vs MRSA strain 2468, relative to non-treated sample) was 96.91 ± 2.99%, the “% Residual Activity” value ([10]; pH 6.8, 1 h, neutralized to pH 7.4 before agar well diffusion vs MRSA strain 2468, relative to non-treated sample) was 98.87 ± 2.00% and the “% Residual Activity” value ([10]; pH 6.8, 6 h, neutralized to pH 7.4 before agar well diffusion vs MRSA strain 2468, relative to non-treated sample) was 95.89 ± 5.00%. For the same compound, the “% Residual Activity” value ([10]; pH 6.8, 12 h, neutralized to pH 7.4 before agar well diffusion vs MRSA strain 2468, relative to non-treated sample) was 92.54 ± 4.14%, the “% Residual Activity” value ([10]; pH 7.4, 1 h, agar well diffusion vs MRSA strain 2468, relative to non-treated sample) was 97.80 ± 1.32% and the “% Residual Activity” value ([10]; pH 7.4, 6 h, agar well diffusion vs MRSA strain 2468, relative to non-treated sample) was 94.82 ± 2.80%. For the same compound, the “% Residual Activity” value ([10]; pH 7.4, 12 h, agar well diffusion vs MRSA strain 2468, relative to non-treated sample) was 93.29 ± 1.89%, the “% Residual Activity” value ([11]; 1 h) was 95.57 ± 4.01% and the “% Residual Activity” value ([11]; 6 h) was 95.66 ± 2.62%. The “% Residual Activity” value ([11]; 12 h) was 93.81 ± 3.31%, the “% Residual Activity” value ([12]; 1 h) was 96.65 ± 2.14% and the “% Residual Activity” value ([12]; 6 h) was 95.15 ± 6.64%. The “% Residual Activity” value ([12]; 12 h) was 97.06 ± 0.54%.
